Laboratory results: US10391070B2, “Compositions and methods for treating neurological diseases or injury” (MUSC FOUNDATION FOR RESEARCH DEVELOPMENT, priority 2012, dated 2019)
Like-named read-outs stand apart in the source and are kept apart here.

Experiments:
[1] = Mouse neurotoxicity (rotorod); assay type: in vivo; conditions: mice, 100 mg/kg i.p.
Protocol: Using a 96-well plate, one zebrafish larva (7 dpf) was placed in each well in 100 μL of tank water. 100 μL of each compound was then added to each well for 12 animals (one row) for a final volume of 200 μL. One row of zebrafish larvae was used as DMSO only controls. […] Toxicity was also measured in the mouse model by the NIH Anticonvulsant Screening Program at the National Institute of Neurological Disorders and Stroke (Stables and Kupferberg, 1997), according to the established NIH experimental procedures. Compounds were delivered into mice by intraperitoneal (i.p.) injection at a dose of 100 mg/kg in sterile 5% DMSO, 95% Neobee (Josey et al., 2013). Acute toxicity was assessed by monitoring the animals for impaired neuromuscular function by placing treated mice on a rod rotating at 6 rpm. […].

[2] = test system: c-fos; assay: c-fos gene expression in PTZ-treated zebrafish larvae; assay type: in vivo, zebrafish (Danio rerio); conditions: 7 dpf zebrafish; for reduction of c-fos gene expression compared to PTZ alone: concentrations of Table 9
Protocol: Ten 7 dpf larvae were placed in 500 μL tank water in wells of a 48-well cell-culture plate and appropriate concentrations of drugs were added as in the behavior study (Table 9). After a 1 h pre-incubation period, PTZ was added to a final concentration of 15 mM in appropriate wells and larvae were incubated for a further 45 min. Fish were quickly euthanized by incubating the plate in an ice-water bath for 15 min. Fish were removed from each well and all liquid removed before freezing at −80° C. RNA was extracted using Trizol (Invitrogen) followed by the RNeasy Mini kit (Qiagen). Frozen embryos were homogenized in 800 μL Trizol using in-tube pestles and a motorized homogenizer. Following a 5-min incubation at room temperature, 200 μL chloroform was added and the samples were centrifuged at 12,000 g for 10 min. The aqueous phase was transferred to a new tube and 250 μL 100% ethanol was added and the samples mixed. This mixture was then transferred to the Qiagen minicolumn assembly and the protocol followed as described with the kit. Samples were eluted in 30 μL RNase free water and concentration was determined using the Nanodrop instrument (Thermo Fisher). cDNA was prepared using the RETROscript kit (Ambion) with 500 ng total RNA. cDNA was then diluted 1:1 with sterile dH2O and 2.5 μL of this cDNA was used in the QPCR reaction with SsoAdvanced SYBR Green Supermix (BioRad) and c-fos primers designed to span an intron-exon junction (c-fos F: […], SEQ ID NO:9; c-fos R: […], SEQ ID NO:10) ([…] each) in the BioRad CFX96 RealTime instrument. L13a and EF1a gene expression were used for normalization (Rahn et al., 2013). The following cycle conditions were used: 95° C./3 min, 40 cycles of 95° C./15 s, 62° C./30 s, followed by 95° C. 30 s and a dissociation curve. Samples were run in duplicate. The 2^−ΔΔCt method was used to quantify gene expression, whereby all gene Ct values were first normalized to Ct values of the geometric mean of the Ct of L13a and EF1a (Livak and Schmittgen, 2001). Treated samples were then normalized to the tank water control and converted to fold change.

[3] = test system: HT22 cells; assay: In vitro neurotoxicity without glutamate (MTS cell viability); assay type: cell-based, mouse; conditions: for Safety Index TC50/PC50: HT22 cells
Protocol: The HT22 neuronal cell line is a subclone of HT4, derived from the mouse hippocampus (Morimoto and Koshland, 1990). […] HT22 cells were used. The cells were grown in Dulbecco's Modified Eagle's medium (DMEM/high glucose) supplemented with 10% fetal bovine serum (Hyclone) and 5 mL Antibiotic-Antimycotic (Amphotericin B, Penicillin, and Streptomycin; Invitrogen) at 37° C. in 5% CO2.
Cell viability was assessed by the ability of the viable cells to metabolize 3-(4,5-dimethylthiazol-2-yl)-5-(3-carboxymethoxyphenyl)-2(4-sulfophenyl)2-H-tetrazolium, inner salt (MTS), as described previously (Cory et al., 1991). The metabolism of tetrazolium salts is often used to measure cellular proliferation, but in the system used here, it has been previously shown to correlate well with cell viability as determined by trypan blue exclusion and colony-forming assays (Davis and Maher, 1994). Briefly, HT-22 cells were seeded onto 96-well plates at 5.0×10^3 cells per well in 75 μL of medium and maintained at 37° C. in 5% CO2 overnight prior to the initiation of experimental treatments. For glutamate toxicity testing, cells were subsequently treated with 25 μL of medium containing glutamate (monosodium glutamate, Sigma, 1 M stock concentration in media, to achieve a final concentration of 10 mM) plus inhibitors (stock in DMSO) and maintained at 37° C. in 5% CO2. For t-BuOOH toxicity testing, cells were subsequently treated with 25 μL of medium containing t-BuOOH (Sigma, 10 mM stock concentration, to achieve a final concentration of 50 μM) plus inhibitors (stock in DMSO) and maintained at 37° C. in 5% CO2 for 3 hours, after which the media was removed, cells washed gently with HBSS, the media replaced with standard culture media, and the cells returned to incubation at 37° C. in 5% CO2. For both glutamate and t-BuOOH treatments, 10 μl of MTS solution was added to each well 24 hrs after initial treatment, and the cells were maintained in growth medium for 2 h at 37° C. Absorbance at 490 nm was subsequently measured by a SpectraMax 190 plate reader (Molecular Devices). The growth medium without cells in the presence of MTS solution was used as solution background and untreated cells were considered the controls. Cell viability was calculated as a percentage compared with untreated controls. EC50 determinations were based on 12-point titrations using GraphPad Prism, and each experiment was repeated at least four times. Morphology of HT22 cells following treatments was determined by phase-contrast microscopy. Digital images of cells grown on cell culture plates were captured at 10× magnification.

[4] = test system: PGAM5; assay: Western blot, PGAM5 cleavage; assay type: cell-based, mouse; conditions: HT22, glutamate
Protocol: HT-22 cells were cultured and treated as described above for the qRT-PCR experiments. After 16 hrs, the media was collected and the cells harvested by trypsanization. After centrifugation, pelleted cells were washed with cold HBSS Ca^2+/Mg^2+ Free, followed by lysis with a low salt lysis buffer (50 mM Tris-HCl, pH 7.4, 150 mM NaCl, 10% glycerol, 0.5 Triton X-100, 1× protease and phosphatase inhibitor cocktail) for 30 min, followed by a 15-s sonication pulse at 30 W. For Western blot analysis, the cell lysates were denatured with LDS loading buffer (Invitrogen) and run on Nupage 4-12% Tris-glysine gradient gels (Invitrogen) after centrifugation. Phosphorylated Drp1 (Ser637) (Cell Signaling) and total Drp1 (C5) (Santa Cruz), PGAM5 (K16) (Santa Cruz Biotechnology), Actin (Sigma-Aldritch) and alpha-Tubulin (Santa Cruz Biotechnology) were assessed with primary antibody, followed by rabbit, mouse, or goat IgG-HRP secondary antibody. The blot was developed using Pierce Thermo Dura-ECL reagent (Thermo-Fisher) and visualized using an ImageQuant LAS 4000 (GE). Digital images of membranes were quantified by computer-assisted densitometry using Image J 1.42q (National Institutes of Health, MD).

[5] = HT22 cells without glutamate, 24 hrs, MTS, concentration producing 50% toxicity, read-out: Toxicity TC50

Compound | animals displaying toxic effects/animals tested, 0.25 hr [1] | animals displaying toxic effects/animals tested, 0.5 hr [1] | animals displaying toxic effects/animals tested, 1.0 hr [1] | animals displaying toxic effects/animals tested, 2.0 hr [1] | animals displaying toxic effects/animals tested, 4.0 hr [1] | reduction of c-fos gene expression compared to PTZ alone [2] | Safety Index TC50/PC50 [3] | CC50 [3, 5] [µM] | increase in lower band (cleavage product) of PGAM5 ([4]; 125 nM) | fold reduction of c-fos gene expression compared to PTZ alone ([2]; 6 μM pre-treatment) | increase in lower band (cleavage product) of PGAM5 ([4]; 500 nM) | CC50 [3] [µM] | cellular toxicity [3]
C#CCNC1=CC(=O)c2ccccc2C1=O [Compound 2h, 2-(prop-2-yn-1-ylamino)naphthalene-1,4-dione] | 0/12 | 1/12 | 0/12 | 0/12 | 0/12 | about half | 442 | 53 | – | – | – | – | –
O=C1C=C(NCc2ccccc2)C(=O)c2ccccc21 [Compound 2j, 2-(benzylamino)naphthalene-1,4-dione] | 0/12 | 0/12 | 0/12 | 0/12 | 0/12 | about half | 1,136 | > 100 | completely attenuated | – | – | – | –
O=C1C=C(NCc2cccc(Cl)c2)C(=O)c2ccccc21 [Compound 2q, 2-((3-chlorobenzyl)amino)naphthalene-1,4-dione] | 0/12 | 0/12 | 0/12 | 0/12 | 0/12 | about half | 3,226 | > 100 | completely attenuated | – | – | – | –
CC1=CC(=O)c2ccccc2C1=O [VK3, menadione, reference compound] | – | – | – | – | – | – | 24 | 19 | – | approximately 10 fold | – | – | –
menaquinones [VK2, reference compound] | – | – | – | – | – | – | 231 | – | – | – | completely attenuated | > 100 | neither exhibited any signs of cellular toxicity
